# From ChEMBL document CHEMBL3507680, “University of Dundee, Gates Library screen for HepG2 cell viability”
# Experiment: Human HepG2 cell viability assay in 384 well format
# Format: toxicity, cell-based
# Set-up: dose 125 nL, time 70.5 hour; cytotoxicity at 70.5 h: concentration not given beside the values
# Conditions: HepG2 cells, read-out: Inhibition
row,SMILES,cytotoxicity at 70.5 h [%]
1,Cc1cc(C)n(-c2ccc3nnc(C)n3n2)n1,18
2,C[C@H](NC(=O)N1CCC(Cc2ccccc2)CC1)C(=O)O,-12.5
3,Cn1c2ccc(F)cc2c2ncn(CCN3CCOCC3)c(=O)c21,17.4
4,COc1cc(-c2nc(N)n[nH]2)cc(OC)c1OC,-8.57
5,CC(=O)NCCC(Cc1ccccc1)c1ccco1 (configuration not stated),-13.4
6,C/C(NC(=O)c1cccs1)=C1\C(=O)C[C@@H]2[C@H]1C2(C)C,-10
7,Cc1nc(Oc2ccccc2Cl)sc1C(=O)O,-15.5
8,O=C(O)CN1CCC(c2ccccc2)C1 (configuration not stated),-13.6
9,Cc1ccc(-c2nn(C)c(C(=O)O)c2Br)cc1,-20.5
10,O=C1Nc2ccccc2/C1=C1\CCCN1,-1.25
11,CC(=O)N1CC[C@@]2(O)CCCC[C@H]2[C@@H]1c1ccccc1,-0.54
12,COc1ccc2[nH]c3c(N(C)CC4OCCO4)ncnc3c2c1,5.81
13,C/C(NC(=O)c1ccco1)=C1/C(=O)C[C@@H]2[C@H]1C2(C)C,-6.66
14,CC(=O)N1CC[C@@]2(O)CCCC[C@H]2[C@@H]1c1ccc2c(c1)OCO2,-1.93
15,CCC[C@]12CN3C[C@](CCC)(CN(C1)C3c1[nH]c(=O)[nH]c(=O)c1C)C2=O (some centres not stated),-10.7
16,Cc1c(C2N3C[C@]4(C(C)C)CN2C[C@](C(C)C)(C3)C4=O)[nH]c(=O)[nH]c1=O (some centres not stated),-4.97
17,CCC[C@]12CN3C[C@](C)(CN(C1)C3c1[nH]c(=O)[nH]c(=O)c1C)C2=O (some centres not stated),-9.33
18,COc1ccc2c(ccn2CCC(=O)N[C@H](C(=O)O)C(C)C)c1,-8.62
19,O=C(CCC(=O)N1CCc2[nH]c3ccccc3c2C1)NCc1ccco1,-8.42
20,COc1ccc2c(ccn2CCC(=O)NCCC(=O)O)c1,4.49
21,CCOc1c(C(N)=O)cn(C)c1-c1nc2cc(NC(C)=O)ccc2n1C,-19.2
22,CSCC[C@H](NC(=O)CCn1ccc2c(Br)cccc21)C(=O)O,-16.3
23,CC[C@@H](C)[C@H](NC(=O)CCn1cc(C(C)=O)c2ccccc21)C(=O)O,-6.89

row,SMILES,cytotoxicity at 70.5 h [%]
1,CC(=O)c1cn(CCC(=O)NCCCC(=O)O)c2ccccc12,-12.2
2,Cc1occc(=O)c1OCC(=O)N1CCc2ccccc2C1,7.13
3,CC(=O)c1cc2c(=O)[nH]c(=O)n(C)c2nc1C,-9.65
4,COc1cc2nc(C)n(CC(=O)NCCCO)c(=O)c2cc1OC,-10.5
5,COc1cc2nc(C)n(CC(=O)NCCC(C)C)c(=O)c2cc1OC,-16.6
6,O=C(NCCc1c[nH]cn1)c1n[nH]c2c1CCC2,-8.54
7,COCCn1ccc2cc(C(=O)NC3CCOC(C)(C)C3)ccc21 (configuration not stated),-2.78
8,COc1cc(OC)c(C2CC(=O)Oc3cc(C)[nH]c(=O)c32)cc1OC (configuration not stated),-19.4
9,COc1ccc(C2CC(=O)Oc3cc(C)[nH]c(=O)c32)c(OC)c1 (configuration not stated),-19.2
10,COC(=O)CC(c1ccc(OC)c(O)c1)c1oc(C)cc(=O)c1O (configuration not stated),-2.8
11,COC(=O)CC(c1ccc(O)c(Cl)c1)c1oc(C)cc(=O)c1O (configuration not stated),1.45
12,COC(=O)CC(c1cccnc1)c1oc(C)cc(=O)c1O (configuration not stated),-16.7
13,CCc1c(O)nc(SCC(=O)c2ccccc2)n(-c2ccccc2)c1=O,-2.09
14,O=c1[nH]cc(Nc2ccc(Cl)cc2)c(=O)[nH]1,29.9
15,CN(CC(=O)N1CCc2[nH]c3ccccc3c2C1)CC1OCCO1,24
16,Cc1cc(NCCN)nc(-c2ccccc2O)n1,35.9
17,CSc1c(CC(=O)O)n(C)c2ccccc12,-0.594
18,Cc1nn(C2CCCC2)c2c1C(c1ccc3c(c1)OCO3)SCC(=O)N2 (configuration not stated),-12.2
19,CSCC[C@@H](CO)NC(=O)c1sc(-c2ccccc2Cl)nc1C,-16.5
20,COC(=O)CCCNC(=O)N1CCc2c([nH]c3ccc(Cl)cc23)C1,-6.07
21,COc1ccc(CC(=O)NCCCc2nnc3nc(C)cc(C)n23)cc1,-10.1
22,O=C(CC1NC(N2CCc3ccccc3C2)=NC1=O)Nc1ccccc1 (configuration not stated),-5.52
23,CNc1oc(-c2ccc(OC)c(S(=O)(=O)N(C)C)c2)nc1C#N,-9.03

row,SMILES,cytotoxicity at 70.5 h [%]
1,CCCn1nnc2c(sc3nc(N4CCOCC4)c4c(c32)CCC4)c1=O,-21.7
2,O=C(O)CCCNC(=O)N1CCc2c([nH]c3ccc(Cl)cc23)C1,-7.18
3,Cc1nc(-c2noc3ccc(C(=O)NCCN4CCOCC4)cc23)co1,12.2
4,CN(C)S(=O)(=O)N1C[C@H]2CCC[C@@]2(COCC2CC2)C1,16.4
5,COCC(=O)N1CC[C@@H]2O[C@@H](COCC3CCOCC3)CC[C@@H]21,12.6
6,Fc1cnc(N2CC[C@@H](N3CCOCC3)[C@@H]2Cc2ccccc2)nc1,8.96
7,CN(C)c1cccc(C(=O)N2CCc3ccc(=O)[nH]c3CC2)c1,-6.59
8,Cn1c2c(c(=O)n1C)CN(S(=O)(=O)c1cccs1)CCC2,-5.01
9,CN(C)C(=O)N1CCc2ccc(=O)[nH]c2CC1,-3.89
10,Cn1cc(C(=O)N2CC[C@@H]3[C@@H]2CCN3c2ccccn2)cn1,-5.62
11,O=C(c1ccco1)N1CC[C@@H]2O[C@H](COCC3CCOCC3)CC[C@@H]21,4.34
12,Cc1nc(-c2noc3ccc(C(=O)NCCN4CCOCC4)cc23)cs1,-8.24
13,Cc1cccc(N2CC[C@H]3[C@H]2CCN3C(=O)c2cnn(C)c2)n1,-8.26
14,CC(C)N1CCc2ncn(C(C)C)c2C1C(=O)NCCN1CCCC1 (configuration not stated),-7.38
15,Cc1nc(-c2noc3ccc(C(=O)NCCN(C)C)cc23)co1,-7.57
16,CCc1noc(C)c1C(=O)N1CCCCC1Cn1cc(C)cn1 (configuration not stated),46.7
17,c1ccc(-n2cc(CNCC3CCCN3c3cccnn3)cn2)cc1 (configuration not stated),-5.35
18,Cc1cnn(CC2CCCN2C(=O)c2c(C)noc2C)c1 (configuration not stated),-11
19,CC(C)c1nn(C)c(N(C)C)c1CNCc1ccc2c(c1)OCCO2,-5.83
20,O=C(CCc1ccsc1)Nc1cccnc1N1CCCC1,-6.9
21,CN(Cc1ccco1)C(=O)Nc1cccnc1N1CCCC1,-3.81
22,O=C(CCNC(=O)C1CCCC1)NCc1ccccc1Cn1ccnc1,-8.37
23,Cc1ncsc1C(=O)NC1CCN(CCC(=O)Nc2ccccc2)CC1,-1.32

row,SMILES,cytotoxicity at 70.5 h [%]
1,OCCn1nccc1C1CCN(CCOc2ccc(Cl)cc2)CC1,-1.15
2,Cc1ccc(OCCN2CCC(c3ccnn3CCO)CC2)cc1,3.29
3,OCCn1nccc1C1CCN(CCOc2ccccc2Cl)CC1,-0.941
4,OCCn1nccc1C1CCN(CCOc2ccccc2F)CC1,-2.7
5,COc1ccc(OCCN2CCC(c3ccnn3CCO)CC2)cc1,-5.41
6,CC(C)c1nn(C)c(N2CCOCC2)c1CNC(C)c1ccccn1 (configuration not stated),-2.55
7,Cc1cc(C)n(CC2CN(CCOc3ccccc3C#N)CCO2)n1 (configuration not stated),-5.02
8,N#Cc1cccc(OCCN2CCOC(Cn3cccn3)C2)c1 (configuration not stated),-3.46
9,Cc1nc(C(=O)N2CCCCC2)nn1-c1ccccc1Cl,-7.71
10,Cc1cnn(C2CCCN(C(=O)c3ccc(N4CCCC4)nn3)C2)c1 (configuration not stated),1.64
11,O=C(CN1CCc2cncnc2C1)NCCOc1cccc(Cl)c1,-4.17
12,Cc1nn(CC(C)C)c(N(C)C)c1CNCc1ccc2c(c1)OCO2,-2.13
13,c1ccc(-n2nnnc2CNCC2CCCN2c2cccnn2)cc1 (configuration not stated),-0.967
14,CC(C)c1n[nH]c(C2CN(C(=O)c3cc(Cl)c[nH]3)CCO2)n1 (configuration not stated),-8.73
15,Cc1cc(C(=O)N2CCOC(c3nc(C(C)C)n[nH]3)C2)no1 (configuration not stated),-11.9
16,CC(Cn1cccn1)NCc1nc(-c2ccccn2)no1 (configuration not stated),-11.1
17,c1csc(-c2noc(CNCCn3cccn3)n2)c1,-4.45
18,COCc1nc(C(=O)N2CCCC(n3nc(C)cc3C)C2)cs1 (configuration not stated),-8.71
19,O=C(CCc1ccc(Cl)s1)NCc1nnc2n1CCCCC2,-15.9
20,Cc1cnc2c(S(=O)(=O)NC3CCS(=O)(=O)C3)cccc2c1 (configuration not stated),-8.37
21,O=C(NCCN1CCOCC1)c1scnc1Cl,-15.1
22,COc1ccnc(N2CCN(C(=O)N3CCOCC3)CC2)n1,-10.7
23,Cc1nc2ccnn2c(C)c1CCC(=O)N1CCSCC1,-6.09

row,SMILES,cytotoxicity at 70.5 h [%]
1,CC1CN(CCOc2ccccc2C#N)CCN1Cc1nccn1C (configuration not stated),-12.6
2,Cn1ccnc1CN1CCN(CCOc2ccccc2F)CC1,-11.2
3,c1ncc2c(n1)CN(Cc1nc(-c3ccsc3)no1)CC2,-14.7
4,Cc1nc(C)n(CC2CCCN2Cc2cccc3c2OCCO3)n1 (configuration not stated),-5.55
5,CC(Cn1cccn1)NCc1nc(-c2ccccc2Cl)no1 (configuration not stated),-19.9
6,CCC(C)[C@H](N)c1nnc(SCC(=O)Nc2ccc(C)cc2C)o1 (some centres not stated),0.595
7,CC(C)[C@H](N)c1nnc(SCC(=O)Nc2ccc(Br)cc2)o1,-4.97
8,CC(C)C[C@H](N)c1nnc(SCC(N)=O)o1,24.4
9,CCN1CCC2(CC1)OCCN2C(=O)c1ccc(OC)c(Cl)c1,3.75
10,Cc1[nH]nc2ncc(C(=O)N3CCN(CC(C)O)CC3)cc12 (configuration not stated),-5.99
11,COc1ccc2c(ccn2CCCN)c1,-7.17
12,CN(C)CCNCCC(c1ccccc1)C1CCOC(C)(C)C1 (configuration not stated),-6.43
13,CN1CCN(c2ccc3ccc(C(=O)N4CCCO4)cn23)CC1,-9.32
14,Cn1cc(C[C@H]2[C@H](N3CCOCC3)CCN2c2ncc(F)cn2)cn1,3.47
15,Cc1ccc(CN2C[C@@H]3[C@@H](C(=O)N4CCCC4)CCS(=O)(=O)[C@@H]3C2)cc1,-1.09
16,CN1CCC2(COCCN(Cc3cccc(C#N)c3)C2)C1 (configuration not stated),-0.504
17,COCCN1CCO[C@@H]2CN(Cc3sccc3C)C[C@@H]2C1,1.15
18,Fc1cnc(N2CC[C@@H](N3CCOCC3)[C@@H]2Cc2ccncc2)nc1,15.9
19,COCCN1CCC2(COCCN(Cc3ccc4c(c3)OCO4)C2)C1 (configuration not stated),-9.54
20,Cc1csc(NCC(=O)c2c[nH]c3ccccc23)n1,3.37
